According to ChEMBL document CHEMBL5050859, “Gpx4 inhibitors, pharmaceutical compositions thereof, and their use for treating gpx4-mediated diseases” (2021):
pEC50: −log10 of the molar value.

System: Huh-7
Test: Antiproliferative activity against human Huh-7 cells after 24 hrs by Cell Titer Glo assay
Type: functional, cell-based
Conditions: Huh-7, 24 h

Row | Compound | pEC50
1 | C#CC(=O)N(c1cccc(-c2cc[nH]n2)c1)C1(C(=O)NCc2ccccc2)CCOCC1 | 7.00
2 | C#CC(=O)N(c1cccc(Cl)c1)C1(C(=O)NCC(=O)NCCO)CCOCC1 | 5.70
3 | C#CC(=O)N(c1ccc(Cl)cc1)C(C(=O)NCc1ccccc1)c1cccc(N)c1 (configuration not stated) | ≥ 7.00
4 | CC#CC(=O)N(c1cccc(Cl)c1)C(C(=O)NCc1ccccc1)c1ccccc1 (configuration not stated) | < 5.00
5 | C#CC(=O)N(c1cc(Cl)ccc1F)C(C(=O)NCc1ccccc1)c1ccc(N)cc1 (configuration not stated) | ≥ 7.00
6 | C#CC(=O)N(c1ccc2c(cnn2C)c1)C1(C(=O)NCc2ccccc2)CCCC(=O)C1 (configuration not stated) | 7.00
7 | C#CC(=O)N(c1cccc(C(=O)OC)c1)C(C(=O)NCc1ccccc1)c1cccs1 (configuration not stated) | ≥ 7.00
8 | C#CC(=O)N(c1cccc(Cl)c1)C1(C(=O)NCc2cccc(Cl)c2)CCOCC1 | ≥ 7.00
9 | C#CC(=O)N(c1cccc2c1OCO2)C(C(=O)NCc1ccccc1)c1ccccc1 (configuration not stated) | 7.00
10 | O=C(CCl)N(c1cccc2nsnc12)C1(C(=O)NCCc2ccccc2)CCOCC1 | 6.30
11 | C#CC(=O)N(c1cccc(Cl)c1)C(C(=O)NCC1CCOCC1)c1ccccc1 (configuration not stated) | ≥ 7.00
12 | C#CC(=O)N(c1cccn2cnnc12)C(C(=O)NCc1ccccc1)c1ccccc1 (configuration not stated) | 7.00
13 | C#CC(=O)N(c1ccc(O)cc1)C(C(=O)NC(C)(C)C)c1ccc(N)cc1 (configuration not stated) | < 5.00
14 | C#CC(=O)N(c1ccc(OC)cc1OC)C(C(=O)NCC(=O)OCC)c1cccs1 (configuration not stated) | 6.30
15 | C#CC(=O)N(c1cccc(CO)c1)C(C(=O)NCc1ccccc1)c1cccc(N)c1 (configuration not stated) | 5.70
16 | C#CC(=O)N(c1ccc(C#N)cc1)C(C(=O)NC(C)(C)C)c1ccc(N)cc1 (configuration not stated) | ≥ 7.00
17 | C=CC(=O)N(CCc1ccccc1)C1(C(=O)NCc2ccccc2)CCOCC1 | < 5.00
18 | COc1cccc(N(C(=O)CCl)C(C(=O)NCCc2ccccc2)c2ccc([N+](=O)[O-])cc2)c1 (configuration not stated) | 7.00
19 | C#CC(=O)N(c1ccc(Cl)cc1)C(C(=O)NC(C)(C)C)c1cccc(N)c1 (configuration not stated) | ≥ 7.00
20 | C#CC(=O)N(c1ccc(C#N)cc1)C(C(=O)NCc1ccccc1)c1cccc(N)c1 (configuration not stated) | ≥ 7.00
21 | C#CC(=O)N(c1cccc(C(N)=O)c1)C(C(=O)NCc1ccccc1)c1ccc(N)cc1 (configuration not stated) | < 5.00
22 | C#CC(=O)N(c1cccc(Cl)c1)C(C(=O)NC(C)(C)C)c1cccc(N)c1 (configuration not stated) | 7.00

Row | Compound | pEC50
23 | C#CC(=O)N(c1ccc2scnc2c1)C(C(=O)NCc1ccccc1)c1ccccc1 (configuration not stated) | ≥ 7.00
24 | CC#CC(=O)N(c1ccc2c(cnn2C)c1)C1(C(=O)NCc2ccccc2)CCCC(C(=O)OC)C1 (configuration not stated) | < 5.00
25 | C#CC(=O)N(c1cccc(NC(C)=O)c1)C(C(=O)NCc1ccccc1)c1ccc(N)cc1 (configuration not stated) | 5.70
26 | C#CC(=O)N(c1cccc(C(=O)OC)c1)C(C(=O)NCc1ccccc1)c1cccc(N)c1 (configuration not stated) | ≥ 7.00
27 | C#CC(=O)N(c1cccc(Cl)c1F)C(C(=O)NCc1ccccc1)c1ccccc1 (configuration not stated) | 7.00
28 | C#CC(=O)N(Cc1cccc(O)c1)C1(C(=O)NCc2ccccc2)CCCC(C(=O)O)C1 (configuration not stated) | < 5.00
29 | C#CC(=O)N(c1ccc(OC)cc1)C(C(=O)NC(C)(C)C)c1ccc(N)cc1 (configuration not stated) | 6.30
30 | C#CC(=O)N(c1cccc(Cl)c1)C1(C(=O)NCc2ccccc2)CCCC(C(=O)OC)C1 (configuration not stated) | ≥ 7.00
31 | C#CC(=O)N(c1cccc(Cl)c1)C1(C(=O)NCC(=O)N2CCCC(O)C2)CCOCC1 (configuration not stated) | 5.70
32 | N#CCC(=O)N(c1cccc(Cl)c1)C1(C(=O)NCc2ccccc2)CCOCC1 | < 5.00
33 | C#CC(=O)N(c1cccc(-c2ccn(C)n2)c1)C1(C(=O)NCc2ccccc2)CCOCC1 | 7.00
34 | C#CC(=O)N(c1ccc2c(c1)OC(F)(F)O2)C(C(=O)NCc1ccccc1)c1ccccc1 (configuration not stated) | ≥ 7.00
35 | C#CC(=O)N(c1ccc(NC(C)=O)cc1)C(C(=O)NC(C)(C)C)c1cccc(N)c1 (configuration not stated) | 5.70
36 | O=C(NCCc1ccccc1)C(c1ccc([N+](=O)[O-])cc1)N(C(=O)CCl)c1cccc(O)c1 (configuration not stated) | 5.70
37 | C#CC(=O)N(Cc1cccc(O)c1)C1(C(=O)NCc2ccccc2)CCOCC1 | ≥ 7.00
38 | C#CC(=O)N(c1ccc(OC)c(Cl)c1)C(C(=O)NC(C)(C)C)c1cccc(N)c1 (configuration not stated) | 7.00
39 | C#CC(=O)N(c1cccc2c1CCC2=O)C(C(=O)NCc1ccccc1)c1ccccc1 (configuration not stated) | ≥ 7.00
40 | C#CC(=O)N(c1cccc(Cl)c1F)C(C(=O)NCc1ccccc1)c1cccc(N)c1 (configuration not stated) | ≥ 7.00
41 | C#CC(=O)N(c1cccc(C(N)=O)c1)C(C(=O)NCc1ccccc1)c1cccc(N)c1 (configuration not stated) | < 5.00
42 | C#CC(=O)N(c1ccc(NS(C)(=O)=O)cc1)C(C(=O)NC(C)(C)C)c1cccc(N)c1 (configuration not stated) | < 5.00
43 | C#CC(=O)N(c1cccc(Cl)c1)C(C(=O)NCc1ccc(F)cc1)c1ccccc1 (configuration not stated) | ≥ 7.00
44 | Nc1cccc(N(C(=O)CCl)C(C(=O)NCCc2ccccc2)c2cccs2)c1 (configuration not stated) | 5.70

Row | Compound | pEC50
45 | C#CC(=O)N(c1ccc2ncn(C)c2c1)C1(C(=O)NCc2ccccc2)CCOCC1 | 6.30
46 | C#CC(=O)N(c1cccc(Cl)c1)C1(C(=O)NCc2ccccc2)CCC(=O)CC1 | ≥ 7.00
47 | COc1ccc(N(C(=O)CCl)C2(C(=O)NCCc3ccccc3)CCOCC2)cc1Cl | ≥ 7.00
48 | C#CC(=O)N(c1cccc(Cl)c1)C(C(=O)NCc1ccccc1)c1ccc(F)cc1 (configuration not stated) | ≥ 7.00
49 | C#CC(=O)N(c1ccc(OC)c(Cl)c1)C(C(=O)NCc1ccccc1)c1ccc(N)cc1 (configuration not stated) | ≥ 7.00
50 | C#CC(=O)N(c1ccc(CO)cc1)C(C(=O)NC(C)(C)C)c1ccc(N)cc1 (configuration not stated) | 5.70
51 | C#CC(=O)N(c1cccc(N)c1)C(C(=O)NCc1ccccc1)c1ccc(N)cc1 (configuration not stated) | 6.30
52 | C=C(F)C(=O)N(c1ccc(OC)c(Cl)c1)C(C(=O)NCc1ccccc1)c1cccc(N)c1 (configuration not stated) | < 5.00
53 | C#CC(=O)N(c1cccc(Cl)c1)C(C(=O)NCc1ccccc1)c1ccc(N)cc1 (configuration not stated) | ≥ 7.00
54 | C#CC(=O)N(c1cccc2nsnc12)C(C(=O)NCc1ccccc1)c1ccccc1 (configuration not stated) | ≥ 7.00
55 | COC(=O)c1cccc(N(C(=O)CCl)C(C(=O)NCCc2ccccc2)c2ccc([N+](=O)[O-])cc2)c1 (configuration not stated) | 7.00
56 | C#CC(=O)N(c1cccc(Cl)c1)C(C(=O)NCc1ccccc1)c1cccc(N)c1 (configuration not stated) | ≥ 7.00
57 | C#CC(=O)N(c1cccc(Cl)c1)C(C(=O)NCc1ccccc1)C1CCOCC1 (configuration not stated) | 6.30
58 | CC#CC(=O)N(c1ccc(Cl)c(Cl)c1)C(C(=O)NCc1ccccc1)c1ccccc1 (configuration not stated) | < 5.00
59 | C#CC(=O)N(c1cccc(Cl)c1)C1(C(=O)NCC(=O)OCC)CCOCC1 | 6.30
60 | C#CC(=O)N(c1ccc(Cl)cc1)C(C(=O)NC(C)(C)C)c1ccc(N)cc1 (configuration not stated) | 7.00
61 | Cn1ncc2cc(N(C(=O)C3CO3)C3(C(=O)NCc4ccccc4)CCOCC3)ccc21 (configuration not stated) | < 5.00
62 | C#CC(=O)N(c1ccc(C#N)cc1)C(C(=O)NCc1ccccc1)c1ccc(N)cc1 (configuration not stated) | ≥ 7.00
63 | C#CC(=O)N(c1cccc2nonc12)C(C(=O)NCc1ccccc1)c1ccccc1 (configuration not stated) | 7.00
64 | C#CC(=O)N(c1ccc(C(=O)OC)cc1)C(C(=O)NCc1ccccc1)c1ccc(N)cc1 (configuration not stated) | ≥ 7.00
65 | C#CC(=O)N(c1ccc2c(c1)OCO2)C1(C(=O)NCc2ccccc2)CCOCC1 | 7.00
66 | C#CC(=O)N(Cc1ccccc1)C(C(=O)NCc1ccccc1)c1cccc(N)c1 (configuration not stated) | 6.30

Row | Compound | pEC50
67 | COc1ccc(N(C(=O)C#CCO)C(C(=O)NCCc2ccccc2)c2cccs2)cc1Cl (configuration not stated) | 5.70
68 | C#CC(=O)N(c1cccc(Cl)c1)C(C(=O)NCc1ccccc1F)c1ccccc1 (configuration not stated) | 7.00
69 | Cn1ncc2cc(N(C(=O)CCl)C3(C(=O)NCc4ccccc4)CCOCC3)ccc21 | 6.30
70 | C#CC(=O)N(Cc1cccc(O)c1)C1(C(=O)NCc2ccccc2)CCCC(C(=O)OC)C1 (configuration not stated) | 7.00
71 | C#CC(=O)N(c1ccn(C)c(=O)c1)C(C(=O)NCc1ccccc1)c1ccccc1 (configuration not stated) | 5.70
72 | COc1ccc(N(C(=O)CCl)C2(C(=O)NCCc3ccccc3)CCC(F)(F)CC2)cc1Cl | 7.00
73 | C#CC(=O)N(c1ccc(O)cc1)C(C(=O)NCc1ccccc1)c1ccc(N)cc1 (configuration not stated) | 5.70
74 | C#CC(=O)N(c1cccc2c1CCC2=O)C1(C(=O)NCc2ccccc2)CCOCC1 | ≥ 7.00
75 | C#CC(=O)N(c1ccc(NS(C)(=O)=O)cc1)C(C(=O)NC(C)(C)C)c1ccc(N)cc1 (configuration not stated) | < 5.00
76 | C#CC(=O)N(c1ccc(NS(C)(=O)=O)cc1)C(C(=O)NCc1ccccc1)c1ccc(N)cc1 (configuration not stated) | 5.70
77 | C#CC(=O)N(C1(C(=O)NCc2ccccc2)CCOCC1)C1(c2ccccc2)CC1 | ≥ 7.00
78 | C#CC(=O)N(c1ccc(S(N)(=O)=O)cc1)C(C(=O)NCc1ccccc1)c1cccc(N)c1 (configuration not stated) | < 5.00
79 | C#CC(=O)N(c1cccc(C#N)c1)C(C(=O)NCc1ccccc1)c1cccc(N)c1 (configuration not stated) | 7.00
80 | COc1ccc(N(C(=O)CCl)C(C(=O)NCCc2ccccc2)c2cccc(N)c2)cc1Cl (configuration not stated) | 7.00
81 | C#CC(=O)N(c1cccc(OC)c1)C(C(=O)NC(C)(C)C)c1ccc(N)cc1 (configuration not stated) | 7.00
82 | C#CC(=O)N(c1cccc2c1OCO2)C1(C(=O)NCc2ccccc2)CCOCC1 | ≥ 7.00
83 | C#CC(=O)N(c1ccc(S(N)(=O)=O)cc1)C(C(=O)NC(C)(C)C)c1ccc(N)cc1 (configuration not stated) | < 5.00
84 | C#CC(=O)N(c1ccn2cnnc2c1)C1(C(=O)NCc2ccccc2)CCOCC1 | 6.30
85 | CC#CC(=O)N(c1ccc2c(cnn2C)c1)C1(C(=O)NCc2ccccc2)CCCOC1 (configuration not stated) | 5.70
86 | O=C(NCCc1ccccc1)C(c1ccc([N+](=O)[O-])cc1)N(C(=O)CCl)c1cccc(Cl)c1 (configuration not stated) | 7.00
87 | C#CC(=O)N(c1cccc(Cl)c1)C1(C(=O)NCC(=O)N2CCCC(C(=O)OC)C2)CCOCC1 (configuration not stated) | 7.00
